In US20110015225A1, “Heterocyclic compound” (Takeda Pharmaceutical Company Limited, priority 2008, published 2011):

Molecular target: MCH receptor (SLC-1) (UniProt Q99705)
Assay: MCH receptor antagonistic activity using GTPγS binding assay
Assay type: biochemical, human
Conditions: [35S]-GTPγS binding, membrane fractions of SLC-1 expression CHO cells, 3×10^−10 M MCH, 25° C. 1 hr; read-out: Inhibitory Activity (IC50 value: nM)
Experimental: Using human SLC-1 expression CHO cell clone 57 and rat SLC-1 expression CHO cell clone 44 described in WO01/82925, membrane fractions of SLC-1 expression CHO cells were prepared by the following method. In phosphate buffered saline (pH 7.4) supplemented with 5 mM EDTA (ethylenediaminetetraacetic acid) were suspended human and rat SLC-1 expression CHO cells (1×10^8) and centrifuged. Homogenate buffer (10 ml, 10 mM […], 5 mM EDTA, pH 7.5) was added to the pellets of the cells and, using Polytron Homogenizer, the mixture was homogenated. The supernatant obtained after centrifugation at 400×g for 15 min was further centrifuged at 100,000×g for 1 hr to give precipitate of the membrane fraction. The precipitate was suspended in 2 ml of an assay buffer [50 mM Tris-HCl (pH 7.5), 1 mM EDTA, 0.1% BSA (bovine serum albumin), 10 mM MgCl2, 100 mM NaCl, 1 μM GDP (guanosine 5′-diphosphate), 0.25 mM PMSF (phenylmethylsulfonyl fluoride), […]] and centrifuged at 100,000×g for 1 hr. The membrane fraction recovered as precipitate was suspended again in 20 ml of an assay buffer, and after dispensing, preserved at −80° C. and used upon thawing each time when in use.
The MCH receptor antagonistic activity of the test compound was determined as follows. The membrane fractions of SLC-1 expression CHO cells (171 μl) diluted with an assay buffer was dispensed to a polypropylene 96 well plate and 3×10^−10 M MCH (2 μl) diluted with DMSO solution, test compound solution (2 μl) diluted to various concentrations and [^35S]-Guanosine 5′-(γ-thio)triphosphate (25 μl, Daiichi Pure Chemicals Co., Ltd.) were respectively added (cellular membrane final concentration: 20 μg/ml, [^35S]-Guanosine 5′-(γ-thio)triphosphate final concentration: 0.33 nM). The reaction mixture was reacted at 25° C. for 1 hr with stirring, suction filtered with a glass filter (GF-C) and washed 3 times with a wash solution (300 μl, 50 mM Tris-HCl buffer, pH 7.5). Liquid scintillator ([…]) was added to the glass filter and the residual radioactivity was determined by a liquid scintillation counter.
Binding inhibition (%)=(radioactivity upon addition of test compound and MCH−radioactivity upon addition of DMSO solution)/(radioactivity upon addition of MCH−radioactivity upon addition of DMSO solution)×100
From the binding inhibition (%), IC50 of the test compound was calculated.

IC50 | Compound
4.9 nM | Cc1c(NC(=O)c2ccc(/C=C/C3CC3)cc2)ccc2cc(CNC3CCS(=O)(=O)CC3)cnc12 [Ex. 45, 4-[(E)-2-cyclopropylvinyl]-N-(3-{[(1,1-dioxidotetrahydro-2H-thiopyran-4-yl)amino]methyl}-8-methylquinolin-7-yl)benzamide]
4.4 nM | O=C(Nc1ccc2cc(CNC3CCS(=O)(=O)CC3)ccc2c1)c1ccc(OCC2CC2)cc1 [Ex. 46, 4-(cyclopropylmethoxy)-N-(6-{[(1,1-dioxidotetrahydro-2H-thiopyran-4-yl)amino]methyl}naphthalen-2-yl)benzamide]
6.7 nM | CC1=C(CNC2CCS(=O)(=O)CC2)CCc2cc(NC(=O)c3ccc(OCC4CC4)cc3)ccc21 [Ex. 47, 4-(cyclopropylmethoxy)-N-(6-{[(1,1-dioxidotetrahydro-2H-thiopyran-4-yl)amino]methyl}-5-methyl-7,8-dihydronaphthalen-2-yl)benzamide]

The next lines start with the compound.

Compound | IC50
Cc1c(NC(=O)c2ccc(C#CC3CC3)cc2)ccc2cc(CNC3CCS(=O)(=O)CC3)cnc12 [Ex. 41, 4-(cyclopropylethynyl)-N-(3-{[(1,1-dioxidotetrahydro-2H-thiopyran-4-yl)amino]methyl}-8-methylquinolin-7-yl)benzamide] | 2.2 nM
Cc1c(NC(=O)c2ccc(C#CC3CC3)cc2)ccc2cc(CNC3CCN(S(C)(=O)=O)CC3)cnc12 [Ex. 42, 4-(cyclopropylethynyl)-N-[8-methyl-3-({[1-(methylsulfonyl)piperidin-4-yl]amino}methyl)quinolin-7-yl]benzamide] | 2.3 nM
Cc1c(NC(=O)c2ccc(C#CC3CC3)cc2)ccc2cc(CNCC3(O)CCS(=O)(=O)CC3)cnc12 [Ex. 43, 4-(cyclopropylethynyl)-N-[3-({[(4-hydroxy-1,1-dioxidotetrahydro-2H-thiopyran-4-yl)methyl]amino}methyl)-8-methylquinolin-7-yl]benzamide] | 4.7 nM
Cc1c(NC(=O)c2ccc(C#CC3CC3)cc2)ccc2cc(CNCCCS(C)(=O)=O)cnc12 [Ex. 44, 4-(cyclopropylethynyl)-N-[8-methyl-3-({[3-(methylsulfonyl)propyl]amino}methyl)quinolin-7-yl]benzamide] | 2.2 nM
